Reference: article PMC11783601, “Analogue-Sensitive Inhibition of Histone Demethylases Uncovers Member-Specific Function in Ribosomal Protein Synthesis” (Journal of the American Chemical Society, 2025)
Where “and” joins values, the source holds several entries; their conditions need not be identical. Equal values may be shown once.

Target: T1, KDM4A F185A (asKDM4A) in HEK293T cells (Homo sapiens, UniProt O75164, F185A)
T1 construct: we generated the F185A mutation in full-length KDM4A carrying all of the functional domains; host or cells: HEK293T
T1 sequence (O75164 1-1064 F185A): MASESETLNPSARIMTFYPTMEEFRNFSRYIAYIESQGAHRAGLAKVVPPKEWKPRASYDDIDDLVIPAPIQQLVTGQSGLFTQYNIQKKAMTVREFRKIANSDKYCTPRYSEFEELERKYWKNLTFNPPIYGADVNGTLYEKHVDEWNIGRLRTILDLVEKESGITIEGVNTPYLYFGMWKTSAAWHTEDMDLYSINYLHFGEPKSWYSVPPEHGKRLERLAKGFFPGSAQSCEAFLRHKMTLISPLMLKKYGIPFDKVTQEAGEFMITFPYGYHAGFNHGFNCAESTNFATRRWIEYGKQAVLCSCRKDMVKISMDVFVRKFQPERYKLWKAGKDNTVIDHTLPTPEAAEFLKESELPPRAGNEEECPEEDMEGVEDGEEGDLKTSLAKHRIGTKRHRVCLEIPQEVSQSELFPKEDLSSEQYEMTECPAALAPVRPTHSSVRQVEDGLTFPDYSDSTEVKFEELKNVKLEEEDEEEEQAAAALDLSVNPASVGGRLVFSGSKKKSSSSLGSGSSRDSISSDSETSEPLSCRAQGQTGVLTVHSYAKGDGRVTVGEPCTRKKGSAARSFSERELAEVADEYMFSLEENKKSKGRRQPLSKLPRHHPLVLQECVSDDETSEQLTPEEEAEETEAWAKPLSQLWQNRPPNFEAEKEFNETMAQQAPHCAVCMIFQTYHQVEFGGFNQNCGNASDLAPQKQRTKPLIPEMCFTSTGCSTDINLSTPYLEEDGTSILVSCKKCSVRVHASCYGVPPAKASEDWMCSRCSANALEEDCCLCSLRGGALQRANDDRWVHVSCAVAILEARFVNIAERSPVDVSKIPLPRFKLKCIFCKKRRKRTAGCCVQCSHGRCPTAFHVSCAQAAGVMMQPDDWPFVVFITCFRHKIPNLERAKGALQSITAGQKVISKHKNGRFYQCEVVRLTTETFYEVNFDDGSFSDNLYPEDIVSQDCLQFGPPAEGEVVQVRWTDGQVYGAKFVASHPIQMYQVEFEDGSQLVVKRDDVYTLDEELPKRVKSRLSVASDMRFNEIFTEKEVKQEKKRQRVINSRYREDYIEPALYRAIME
Assay: Histone extraction, digestion and tandem mass spectrometry (relative abundance of histone modifications)
Assay type: cell-based
Experimental: HEK293T cells were transiently transfected with asKDM4A and treated with varying concentrations of 6A or 6B. […] To further confirm the activity of the enzyme–inhibitor pair, we performed tandem mass spectrometry of tryptic histones isolated from HEK293T cells expressing asKDM4A in the presence or absence of 100 μM 6A. […]
22. Histone extraction, digestion and tandem mass spectrometry
HEK 293-T cells (ATCC CRL-1573) were plated into 6-well plates (Corning) in DMEM (Corning) supplemented with 10% FBS (Corning) and 1X Antibiotic/Antimycin
(Penicillin/Streptomycin/Fungiozone) (Cytiva HyClone) in an incubator held at 37 °C with 5%
CO2. At 75% confluency, cells were transfected with 2.5 µg KDM4A F185A or Empty Vector with 5µg Thermo Turbofect (FERR0531). After 4 hours, the media was washed and 200 µM of 6A or equivalent volume of DMSO was added and left to incubate at 37 °C for 24 hours. Cells were then washed with 1X PBS (Corning) followed by trypsinization (Gibco TrypLE™ Express Enzyme). Collected cells were centrifuged at 3000xg for 3 minutes, followed by washing with 1X PBS and centrifuged for an additional 3000xg for 3 minutes. Histone proteins were extracted from the pellet as described by25 to ensure good-quality identification and quantification of single histone marks. Briefly, cell pellets were dissolved in 100 µL of cold 0.2 M H2SO4 and incubated for 2 hours rotating in a cold room (4 °C). Aliquots were then centrifuged at 3400xg for 5 minutes […]
at 4 °C and the supernatant was added to a fresh tube. 100% cold TCA was then added to a final volume of 33% volume/volume TCA/supernatant and left to incubate for 1 hour in a cold room (4 °C). Samples were then centrifuged at 3400xg for 5 min at 4 °C and the supernatant was discarded. The precipitate was then washed with cold acetone/0.1% HCl and centrifuged at 3400xg for 5 minutes at 4 °C. The supernatant was discarded, and the precipitate was washed with cold acetone and centrifuged at 3400xg for 5 minutes at 4 °C. The supernatant was discarded, and the pellet was dried using a vacuum centrifuge.
The pellet was dissolved in 50 mM ammonium bicarbonate, pH 8.0, and histones were subjected to derivatization using 5 µL of propionic anhydride and 14 µL of ammonium hydroxide (all Sigma Aldrich) to balance the pH at 8.0. The mixture was incubated for 15 min and the procedure was repeated. Histones were then digested with 1 µg of sequencing grade trypsin (Promega) diluted in 50mM ammonium bicarbonate (1:20, enzyme:sample) overnight at room temperature.
Derivatization reaction was repeated to derivatize peptide N-termini. The samples were dried in a […]
Sample desalting: Prior to mass spectrometry analysis, samples were desalted using a 96-well plate filter (Orochem) packed with 1 mg of Oasis HLB C-18 resin (Waters). Briefly, the samples were resuspended in 100 µl of 0.1% TFA and loaded onto the HLB resin, which was previously equilibrated using 100 µl of the same buffer. After washing with 100 µl of 0.1% TFA, the samples were eluted with a buffer containing 70 µl of 60% acetonitrile and 0.1% TFA and then dried in a […]
LC-MS/MS Acquisition and Analysis: Samples were resuspended in 10 µl of 0.1% TFA and loaded onto a Dionex RSLC […] (Thermo Scientific), coupled online with an Orbitrap Fusion Lumos (Thermo Scientific). Chromatographic separation was performed with a two-column system, consisting of a C-18 trap cartridge (300 µm ID, 5 mm length) and a picofrit analytical column (75 µm ID, 25 cm length) packed in-house with reversed-phase Repro-Sil Pur C18-AQ 3 µm resin. Peptides were separated using a 30 min gradient from 1-30% buffer B (buffer A: 0.1% formic acid, buffer B: 80% acetonitrile + 0.1% formic acid) at a flow rate of 300 nl/min.
The mass spectrometer was set to acquire spectra in a data-independent acquisition (DIA) mode.

[1] = 6A-treated samples, replicates _1 and _2
[2] = H1 variant peptide, samples 6A_1, 6A_2
[3] = HEK293T cells expressing asKDM4A, 100 μM 6A, LC-MS/MS, n = 2
[4] = HEK293T cells, KDM4A F185A + 6A, replicates 6A_1 and 6A_2

CCCCCCCCOC(=O)C(=O)NC(CC(C)C)C(=O)O [6A, L-Leu octyl-ester NOG]
Single marks H3K4ac [1]: 1e-6 and 0.002004 | Single marks H3K4me1 [1]: 0.1039 and 0.09374 | Single marks H3K4me2 [1]: 0.002434 and 0.008819 | Single marks H3K4me3 [1]: 9e-6 and 0.003387 | Single marks H3K9ac [1]: 0.003245 and 0.006938 | Single marks H3K9me1 [1]: 0.2368 and 0.08817 | Single marks H3K9me2 [1]: 0.4213 and 0.4856 | Single marks H3K9me3 [1]: 0.1855 | Single marks H3K14ac [1]: 0.4176 and 0.5798 | Single marks H3K18ac [1]: 0.008957 and 0.006562 | Single marks H3K18me1 [1]: 0 and 1.2e-5 | Single marks H3K23ac [1]: 0.5125 and 0.4435 | Single marks H3K23me1 [1]: 0 and 5e-6 | Single marks H3K56ac [1]: 0 | Single marks H3K56me1 [1]: 0 and 0.9736 | Single marks H3K56me2 [1]: 0 | Single marks H3K56me3 [1]: 0 | Single marks H3K79ac [1]: 0 | Single marks H3K79me1 [1]: 0.3484 and 0.03322 | Single marks H3K79me2 [1]: 0.33 and 0.01715 | Single marks H3K79me3 [1]: 0.04582 and 0 | Single marks H3K122ac [1]: 0.5896 and 0 | Single marks H3S10ph [1]: 0.08584 and 0.005059 | Single marks H4K5ac [1]: 0.04104 and 0.1648 | Single marks H4K8ac [1]: 0.05131 and 0.1596 | Single marks H4K12ac [1]: 0.09119 and 0.2668 | Single marks H4K16ac [1]: 0.3167 and 0.492 | Single marks H4K20ac [1]: 0.00298 and 0.01255 | Single marks H4K20me1 [1]: 0.4844 and 0.3612 | Single marks H4K20me2 [1]: 0.1012 and 0.2416 | Single marks H4K20me3 [1]: 0.03481 and 0.03641 | Single marks H31K27ac [1]: 0.000296 and 0 | Single marks H31K27me1 [1]: 0.18 and 0.1869 | Single marks H31K27me2 [1]: 0.4707 and 0.5161 | Single marks H31K27me3 [1]: 0.189 and 0.1409 | Single marks H31K36me1 [1]: 0.204 and 0.1649 | Single marks H31K36me2 [1]: 0.3714 and 0.4932 | Single marks H31K36me3 [1]: 0.07097 and 0.06279 | Single marks H33K27ac [1]: 6.9e-5 and 0 | Single marks H33K27me1 [1]: 0.2147 and 0.2058 | Single marks H33K27me2 [1]: 0.4693 and 0.4746 | Single marks H33K27me3 [1]: 0.1187 and 0.09838 | Single marks H33K36me1 [1]: 0.2345 and 0.1564 | Single marks H33K36me2 [1]: 0.4525 and 0.5384 | Single marks H33K36me3 [1]: 0.03679 and 0.06963 | Relative abundance, H1_1_35 H11.SETAPVAQAASTATEKPAAAKKTKKPAKAAAPR [2]: 0.0% | Relative abundance, H1_1_35 H13.SETAPAAPAAPAPVEKTPVKKKAKKTGAAAGKR [2]: 0.0% | Relative abundance, H1_1_35 H15.SETAPAETAAPAPVEKSPAKKKTTKKAGAAKR [2]: 0.0% | Relative abundance, H1_54_81 H1v234.SGVSLAALKKALAAAGYDVEKNNSR [2]: 100.0% and 65.9% | Relative abundance, H1_54_81 H11.SGVSLAALKKSLAAAGYDVEKNNSR [2]: 0.0% | Relative abundance, H1_54_81 H15.GGVSLPALKKALAAGGYDVEKNNSR [2]: 0.0% | relative abundance of other key histone methylation and acetylation sites (HEK293T cells expressing asKDM4A, 100 μM 6A, LC-MS/MS): remained unaffected | relative abundance of H3K9me3 [3]: recovered to the level of the control vector | relative abundance of H3K36me3 [3]: recovered to the level of the control vector | Relative abundance AKAKSR(H2A3_12_17) (peptide total) [4]: 100.0% | Relative abundance AKAKTR(H2A1_12_17) (peptide total) [4]: 100.0% | Relative abundance DNKKTR(H2A1_72_77) (peptide total) [4]: 100.0% | Relative abundance H2A1_12_17 K13ac [4]: 0.0152% and 0.527% | Relative abundance H2A1_12_17 K13acK15ac [4]: 0.0603% and 0.3% | Relative abundance H2A1_12_17 K13me1 [4]: 1.8% and 5.0% | Relative abundance H2A1_12_17 K15ac [4]: 15.2% and 32.5% | Relative abundance H2A1_12_17 K15me1 [4]: 4.8% and 11.0% | Relative abundance H2A1_12_17 unmod [4]: 78.1% and 50.7% | Relative abundance H2A1_72_77 K74ac [4]: 0.0186% and 0.272% | Relative abundance H2A1_72_77 unmod [4]: 100.0% and 99.7% | Relative abundance H2A3_12_17 K13ac [4]: 0.023% and 0.0778% | Relative abundance H2A3_12_17 K13acK15ac [4]: 0.0187% and 0.4% | Relative abundance H2A3_12_17 K13me1 [4]: 11.1% and 15.7% | Relative abundance H2A3_12_17 K15ac [4]: 0.0415% and 0.131% | Relative abundance H2A3_12_17 K15me1 [4]: 72.5% and 57.2% | Relative abundance H2A3_12_17 unmod [4]: 16.3% and 26.5% | Relative abundance H2AZ_1_19 K4acK7acK11ac [4]: 0.0% | Relative abundance H2AZ_1_19 K4acK7acK11acK15ac [4]: 1.0% and 0.641% | Relative abundance H2A_1_88 H2A14s.HLQLAIR [4]: 85.1% and 95.1% | Relative abundance H2A_1_88 H2AX.GKTGGKAR [4]: 1.9% and 1.0% | Relative abundance H2A_1_88 H2AZ.AGGKAGKDSGKAKTKAVSR [4]: 13.0% and 3.9%
